Measurements: publication PMC10799085, “A miniaturized mode-of-action profiling platform enables high throughput characterization of the molecular and cellular dynamics of EZH2 inhibition” (Scientific Reports, 2024)
Like-named read-outs stand apart in the source and are kept apart here.

What was measured:
[1] = test system: H3K27me3 mark in MDA-MB-231 cells; test: High content analysis (HCA) of cellular H3K27me3 mark, washout format; format: cell-based; settings: for AUC (a.u.): HCA H3K27 methylation washout pIC50 AUC over all incubation/washout times; for IC50: Homo sapiens
Method: In the low- and high-signal control wells, test compounds were replaced by 10 µM of EZH2 inhibitor (equal to unlabeled probe from ePCA and kPCA) or DMSO, respectively. […] After fixation, the cells were washed with PBS and incubated with 1% BSA blocking solution at RT for 1 h. Blocking solution was discarded, primary monoclonal antibody rabbit Tri-methyl-histone H3K27 (C36B11, Cell signaling) diluted 1:200 in blocking solution was added and incubated overnight at 4 °C. […] Afterwards, cells were washed three times with PBS and incubated at 4 °C until measuring. Fluorescence signals were captured by an Opera Phenix™ High Content Screening (HCA) system (Perkin Elmer) by 10× magnification. […] Microscopy images were initially visualized and preprocessed with MetaXpress High Content Image Acquisition & Analysis Software (Molecular Devices) as previously described. Raw data import, normalization, quality control and fitting curves for IC50 determination of tested compounds were done with Genedata Screener® for high-content screening. Wells with no recognizable signals were masked and the average intensity of the trimethylation signal was normalized to the DMSO control (0%).

[2] = in vitro; format: in vitro ADME; settings: human, Caco-2, pH 7.2, 2 µM, 2 h, 37 °C; for Papp A→B at 2 h, 2 µM: apical to basolateral, read-out: PK Caco-2 Flux Papp A-B (mean); for Papp B→A at 2 h, 2 µM: basolateral to apical, read-out: PK Caco-2 Flux Papp B-A (mean)
Method: Cells were kept at 37 °C in a humidified 5% CO2 atmosphere. Before the permeation assay was run, the culture medium was replaced by an FCS-free HEPES carbonate transport buffer (pH 7.2). For assessment of monolayer integrity, the transepithelial electrical resistance was measured. Test compounds were pre-dissolved in DMSO and added either to the apical or basolateral compartment at a final concentration of 2 µM. Before and after 2 h incubation at 37 °C, samples were taken from both compartments. Analysis of compound content was conducted after precipitation with methanol by LC/MS/MS analysis. Reference compounds were analyzed in parallel as assay control. Permeability (Papp) was calculated in the apical to basolateral (A → B) and basolateral to apical (B → A) directions. The efflux ratio basolateral (B) to apical (A) was calculated by dividing Papp B–A by Papp A–B.

[3] = test system: KARPAS-422 cells; test: Cellular proliferation assay (AlamarBlue, 144 h); format: cell-based; settings: Homo sapiens; KARPAS-422 cells, 6-day (144 h), AlamarBlue; read-out: KARPAS (6-day) Anti-proliferation IC50
Method: Cell viability was determined by means of the AlamarBlue® reagent (Thermo Fisher Scientific) following instructions from the manufacturer. […] Anti-proliferative IC50s were calculated by fitting the normalized AlamarBlue® fluorescence values to a 4-parameter logistic equation using the Electronic Notebook (ELN) software from IDBS.

Row | Compound | AUC (a.u.) [1] [a.u.] | Papp A→B at 2 h, 2 µM [2] [×10⁻⁶ cm/s] | Papp B→A at 2 h, 2 µM [2] [×10⁻⁶ cm/s] | IC50 ([1]; MDA-MB-231, H3K27 methylation HCA, incubation time 0.5 h, washout time 71.5 h, read-out: Mean IC50) [M] | IC50 ([1]; MDA-MB-231, H3K27 methylation HCA, incubation time 2 h, washout time 70 h, read-out: Mean IC50) [M] | IC50 ([1]; MDA-MB-231, H3K27 methylation HCA, incubation time 4 h, washout time 68 h, read-out: Mean IC50) [M] | IC50 ([1]; MDA-MB-231, H3K27 methylation HCA, incubation time 24 h, washout time 48 h, read-out: Mean IC50) [M] | IC50 ([1]; MDA-MB-231, H3K27 methylation HCA, incubation time 48 h, washout time 24 h, read-out: Mean IC50) [M] | IC50 [3] [nM] | IC50 ([1]; MDA-MB-231, read-out: Mean IC50 (M), H3K27 methylation HCA, incubation time 0.5 h, washout time 71.5 h) [M] | IC50 ([1]; MDA-MB-231, read-out: Mean IC50 (M), H3K27 methylation HCA, incubation time 1 h, washout time 71 h) [M] | IC50 ([1]; MDA-MB-231, read-out: Mean IC50 (M), H3K27 methylation HCA, incubation time 24 h, washout time 48 h) [M] | IC50 ([1]; MDA-MB-231, read-out: Mean IC50 (M), H3K27 methylation HCA, incubation time 48 h, washout time 24 h) [M] | IC50 ([1]; MDA-MB-231, read-out: Mean IC50 (M), H3K27 methylation HCA, incubation time 72 h, washout time 0 h) [M]
1 | CCN(c1cc(-c2ccc(CN3CCOCC3)cc2)cc(C(=O)NCc2c(C)cc(C)[nH]c2=O)c1C)C1CCOCC1 [Compound 2, Tazemetostat] | 79.9 | 1.18 | 28.1 | – | – | – | – | – | – | – | – | – | – | –
2 | CCN(c1cc(-c2ccc(CN3CCOCC3)cc2)cc(C(=O)NCc2c(C)cc(C)[nH]c2=O)c1C)C1CCOCC1 [Compound 3, Tazemetostat] | 93.5 | – | – | – | – | – | – | – | – | – | – | – | – | –
3 | CCS(=O)(=O)N1CCC([C@@H](C)n2c(C)c(C(=O)NCc3c(OC)cc(C)[nH]c3=O)c3ccccc32)CC1 [Compound 10, CPI-169] | 39.5 | 0.041 | 14.7 | > 1.2e-05 | > 1.2e-05 | > 1.2e-05 | > 1.2e-05 | 3.1e-06 | 860 | – | – | – | – | –
4 | Cc1cc(C)c(CNC(=O)c2cc(Cl)c3c(c2C)O[C@@](C)([C@H]2CC[C@H](N(C)C)CC2)O3)c(=O)[nH]1 [Compound 31, DS-3201] | 173.5 | 0.599 | 20.9 | – | – | – | – | – | – | 6.9e-07 | 2.3e-07 | 1.2e-07 | 3.9e-08 | 3.4e-09
